# Test results reported in US20130138221A1, “METHODS AND COMPOSITIONS FOR IMPROVING IMPLANT OSSEOINTEGRATION” (Novartis AG, priority 2010, published 2013).
# B1: Antibody 1: anti-sclerostin antibody with VH domain SEQ ID NO: 1 and VL domain SEQ ID NO: 2, disclosed in WO09047356 (antibody, V domains shown)
# VH: QVQLVESGGGLVQPGGSLRLSCAASGFTFRSHWLSWVRQAPGKGLEWVSNINYDGSSTYYADSVKGRFTISRDNSKNTLYLQMNSLRAEDTAVYYCARDTYLHFDYWGQGTLVTVSS
# VL: DIALTQPASVSGSPGQSITISCTGTSSDVGDINDVSWYQQHPGKAPKLMIYDVNNRPSGVSNRFSGSKSGNTASLTISGLQAEDEADYYCQSYAGSYLSEVFGGGTKLTVLGQ
# modifications: Antibody Vh; Antibody Vl
# Tests used:
# bone resorption = settings: zoledronic acid versus etidronate; reference 22; cited from earlier work
# [1] = system: estrogen-deprived (OVX) Wistar rats with titanium screw implant in the left tibia; experiment: biomechanical removal torque testing of titanium screw implants in tibia of ovariectomized rats; assay type: in vivo, rat; settings: 4 weeks post-implantation, implant coated with 8.5 μg zoledronate and/or Antibody 1 100 mg/kg iv. weekly, FIG. 2
# Procedure: Titanium screw type implants (3 mm length, 1-1.5 mm diameter, self-cutting) were prepared by either (1) sand blasting and acid etching with no further coating, or (2) sand blasted and acid etched, then coated with 8.5 μg zoledronate. The coating was carried out by warming the implants and then dip coating with a zolendronate stearate salt and then allowing to dry at 80° C. as described for alendronic acid coating in reference 36. The […] and drying cycle was carried out 3 times. Skeletally mature virgin Wistar rats (6.5-month-old, Harlan laboratories, Switzerland) were estrogen-deprived by ovariectomy (OVX) under narcosis. Bone mineral density loss was confirmed in the proximal tibia metaphysis (4.5 mm distal from proximal end) three months post-ovariectomy (compared to intact controls) by peripheral quantitative computed tomography as described previously. The titanium screws were implanted approximately 3 mm distal to the proximal end of the left tibia under narcosis. Animals received a sand-blasted acid edged titanium implant with or without zoledronic acid coating which were prepared as above. Animals were distributed into the following groups [n=16/group and time point]: 1. OVX group receiving control implant 2. […] Intact group receiving control implant Animals were sacrificed 2 and 4 weeks post-implantation. […]
Molecule,potency relative to etidronate (bone resorption),increase in removal torque versus OVX control implant (group 1) [1] [%]
"O=P(O)(O)C(O)(Cn1ccnc1)P(=O)(O)O [zoledronic acid, 1-hydroxy-2-(imidazol-1-yl)ethane-1,1-diphosphonic acid]","10,000 times",
B1,,32
